# Source: patent US20080085889A1, “Amidomethyl-Substituted 1-(Carboxyalkyl) Cyclopentyl-Carbonylamino-Benzazepine-N-Acetic Acid Compounds, Process and Intermediate Products for Their Preparation and Pharmaceutical Compositions Containing Them” (SOLVAY PHARMACEUTICALS GmbH, priority 2003, published 2008)
# Entries after “also recorded” stand apart in the source; their conditions may differ. Read-outs that look alike come from different tables or passages of the source. Marks after values point to notes of the source that are not given here.
# Experiments:
# [1] = biological target: T1, hSEP (sol hu)(his)6; His6-tagged hSEP ectodomain (Homo sapiens, UniProt Q495T6); experiment: Enzymatic breakdown of CNP and VIP by hSEP and its inhibition, in vitro, HPLC; type: biochemical
# T1 construct: His6-tagged hSEP ectodomain; His6; purchased Innogenetics, Ghent, Belgium
# T1 sequence (Q495T6 49-779 limits assumed): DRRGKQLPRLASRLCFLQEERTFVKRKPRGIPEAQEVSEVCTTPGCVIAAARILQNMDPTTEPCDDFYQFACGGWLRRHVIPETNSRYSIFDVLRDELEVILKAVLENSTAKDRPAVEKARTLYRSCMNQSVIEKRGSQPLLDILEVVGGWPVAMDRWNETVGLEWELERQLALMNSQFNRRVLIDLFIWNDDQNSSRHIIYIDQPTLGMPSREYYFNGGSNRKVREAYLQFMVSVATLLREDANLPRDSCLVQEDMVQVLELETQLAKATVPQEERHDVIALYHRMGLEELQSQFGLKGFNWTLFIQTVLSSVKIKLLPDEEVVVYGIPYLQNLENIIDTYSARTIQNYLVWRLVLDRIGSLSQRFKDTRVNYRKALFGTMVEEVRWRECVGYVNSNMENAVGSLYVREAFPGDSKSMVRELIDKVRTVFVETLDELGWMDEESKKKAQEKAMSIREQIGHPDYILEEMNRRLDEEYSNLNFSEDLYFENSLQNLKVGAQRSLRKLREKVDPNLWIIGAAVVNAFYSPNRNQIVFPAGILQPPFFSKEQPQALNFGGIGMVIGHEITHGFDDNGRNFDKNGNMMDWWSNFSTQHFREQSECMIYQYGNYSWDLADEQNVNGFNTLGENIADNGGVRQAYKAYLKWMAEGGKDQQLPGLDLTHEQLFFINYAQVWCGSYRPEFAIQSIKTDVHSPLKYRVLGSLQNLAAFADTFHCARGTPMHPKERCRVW
# Protocol: The inhibition of the enzymatic breakdown of CNP and VIP by the compounds used according to the invention was measured in an enzymatic in vitro assay according to the following protocol:
# All test compounds were dissolved in DMSO at 10 mM and further diluted with assay buffer.
# 80 μl of assay buffer, 10 μl of enzyme working solution (NEP or hSEP) and 10 μl of peptide stock solution (VIP or CNP) were mixed in an Eppendorf vial and incubated for 120 min. at 37° C. The enzymatic reaction was subsequently terminated by heating to 95° C. for 5 min. After centrifugation (Heraeus Biofuge B, 3 min) the supernatant was subjected to HPLC.
# 70 μl of assay buffer, 10 μl of enzyme working solution (NEP or hSEP) and 10 μl of a test compound solution were mixed in an Eppendorf vial and preincubated at 37° C. for 15 minutes. Then, 10 μl of peptide stock solution (VIP or CNP) was added and the reaction mixture was incubated at 37° C. for 60 min. to allow enzymatic hydrolysis. The enzymatic reaction was subsequently terminated by heating to 95° C. for 5 min. After centrifugation (Heraeus Biofuge B, 3 min) the supernatant was subjected to HPLC. In order to separate the remaining substrate from the cleavage products, a reversed phase HPLC technique with a CC 125/4 Nucleosil 300/5 C18 RP column and a CC 8/4 Nucleosil 100/5 C18 precolumn (Macherey-Nagel, Düren, Germany) was used. 60 μl of the reaction samples were injected into the HPLC and the column was eluted at a flow rate of 1 ml/min with the following gradient:
# All peptides were detected by absorbance at 214 nm (UV spectroscopy). The percentage (=%) of hydrolysis was calculated on the basis of the peak area of the undegraded peptide for an enzyme containing sample Y in correlation to a sample containing the same concentration of peptide without enzyme (blank) by the following equation: % hydrolysis=100*(blank−Y)
# Basis of the calculation of % inhibition is the peak area of the undegraded peptide (VIP or CNP) for an inhibitor containing sample X in comparison to samples containing only peptide (blank) or peptide and enzyme without inhibitor (control) according to the following equation: % inhib=100*(X−control)/(blank−control)
# All samples were run in duplicate and mean values were used. A solvent control (0.1% DMSO) was added to each assay run. CNP and VIP were cleaved by NEP and hSEP in vitro.
# [2] = test system: TUNEL positive cells in heart, liver and kidney; experiment: Adriamycin toxicity: determination of anti-apoptotic activity (TUNEL staining); type: in vivo, Wistar rats; conditions: for TUNEL positive cells, Heart / TUNEL positive cells, Kidney / TUNEL positive cells, Liver: ± SEM
# Protocol: 2. Adriamycin Toxicity: Determination of Anti-Apoptotic Activity
# Wistar rats, weighing 200-250 g, were anesthetized with chloral hydrate, 400 mg/kg, and Alzet osmotic minipumps (2 ML1), were implanted subcutaneously (=s.c.). The pumps had been filled with either vehicle or solution containing compounds of the invention at the appropriate concentration and primed prior to implantation. Animals subsequently received adriamycin at three equal daily doses of 5 mg/kg i.p. on days 1, 2 and 3. Rats were euthanized 5 days after the first injection of adriamycin and transcardially perfused with a solution containing 4% paraformaldehyde in phosphate buffer. The heart, liver and kidneys were subsequently removed and embedded in parafin.
# TUNEL staining: For terminal deoxynucleotide transferase-mediated dUTP nick end-label (TUNEL) based histological analysis, organs were post-fixed for 5 days at 4° C. and paraffin-embedded. TUNEL staining was performed on 10 μm thick paraffin sections using the ApopTag Peroxidase kit (S 7100, Oncor Appligene, Heidelberg, Germany) according to the manufacturer's instructions. Briefly, after pretreatment with proteinase K and quenching of endogenous peroxidase, sections were incubated in equilibration buffer followed by working strength TdT enzyme (incorporating digoxigenin labeled dUTP nucleotides to free 3′-OH DNA termini), (1 hr, 37° C.). Sections were incubated in stop/wash buffer (30 min, 37° C.), then with anti-digoxigenin-peroxidase conjugate (30 min) followed by DAB substrate (Sigma, Deisenhofen, Germany) and lightly counterstained with methylgreen.
# Wistar rats were administered adriamycin at the cumulative dose of 15 mg/kg i.p. The test substance of Example 4 was administered s.c. at the doses of 20, 50 or 100 mg/kg and day by means of Alzet osmotic minipumps over 5 days. Animals were euthanized and transcardially perfused 5 days after the first injection of adriamycin and the heart, kidney and liver were processed for TUNEL staining. Densities of TUNEL positive cells were determined as described in the methods. Results for each organ (heart, liver, kidney) were measured as mean densities of TUNEL positive cells ±SEM for the control groups and the different test groups (20, 50 or 100 mg/kg and day of test compound of Example 4) and listed in table 8 below.
# Comparisons between groups were performed by means of Student's t test (**P<0.01; ***P<0.001 compared to vehicle treated rats).
# [3] = adriamycin 15 mg/kg cumulative i.p. + 20 mg/kg and day s.c. minipump over 5 days
# [4] = adriamycin 15 mg/kg cumulative i.p. + 50 mg/kg and day s.c. minipump over 5 days
# [5] = adriamycin 15 mg/kg cumulative i.p. + 100 mg/kg and day s.c. minipump over 5 days
substance,measurement,setting,value
"{(3S)-3-[({1-[(2″rel1″)-2-ethoxycarbonyl)-4-(isopropylamino)-4-oxobutyl]cyclopentyl}-carbonyl)amino]-2-oxo-2,3,4,5-tetrahydro-1H-1-benzazepin-1-yl}acetic acid [Example 4]",IC50,"[1]; substrate CNP (32-53), read-out: inhibition of breakdown of CNP by hSEP, IC50",1 nM
same,IC50,"[1]; substrate VIP, read-out: inhibition of breakdown of VIP by hSEP, IC50",3.1 nM
same,protection against adriamycin toxicity (densities of TUNEL positive cells),"[2]; 20, 50 or 100 mg/kg and day s.c., heart, liver, kidney","significant protection against adriamycin toxicity in the heart, liver and kidney; also recorded: dose-dependently decreased the cytotoxic effect of adriamycin in all three organs"
same,"TUNEL positive cells, Heart",[2]; [3],4.350 ± 0.248*** cells/mm3 × 102
same,"TUNEL positive cells, Kidney",[2]; [3],7.900 ± 0.306*** cells/mm3 × 102
same,"TUNEL positive cells, Liver",[2]; [3],8.750 ± 0.301** cells/mm3 × 102
same,"TUNEL positive cells, Heart",[2]; [4],3.700 ± 0.260*** cells/mm3 × 102
same,"TUNEL positive cells, Kidney",[2]; [4],7.850 ± 0.587** cells/mm3 × 102
same,"TUNEL positive cells, Liver",[2]; [4],8.250 ± 0.271*** cells/mm3 × 102
same,"TUNEL positive cells, Heart",[2]; [5],3.550 ± 0.157*** cells/mm3 × 102
same,"TUNEL positive cells, Kidney",[2]; [5],6.300 ± 0.260*** cells/mm3 × 102
same,"TUNEL positive cells, Liver",[2]; [5],7.450 ± 0.329*** cells/mm3 × 102
same,most effective dose against adriamycin toxicity,"[2]; of 20, 50 or 100 mg/kg and day s.c.",100 mg/kg and day
